Test results taken from US6090787A, “Antithrombotic agents” (Eli Lilly and Company, priority 1999, dated 2000).
Square brackets hold non-standard residues; d marks the D form. Peptide text beside a SMILES is read from it. dPip = O=C(O)[C@H]1CCCCN1; Nphe = O=C(O)CNCc1ccccc1; Nleu = CC(C)CNCC(=O)O; NEtG = CCNCC(=O)O

Key:
[1] = molecular target: T1, human thrombin (Homo sapiens, UniProt P00734); assay: Inhibition of amidase activity of thrombin (Kass), chromogenic substrate; assay type: biochemical; conditions: apparent association constant, mean over a range of concentrations
T1 construct: purified human thrombin, Enzyme Research Laboratories; purchased Enzyme Research Laboratories, South Bend, Indiana
Method: The assay is carried out by mixing 50 μL buffer (0.03 M Tris, 0.15 M NaCl, pH 7.4) with 25 μL of bovine thrombin or human thrombin solution (0.21 mg/mL of thrombostat bovine thrombin, Parke-Davis, or purified human thrombin, Enzyme Research Laboratories, South Bend, Indiana, at about 8 NIH units/mL, in the same buffer) and 25 μL of test compound in a solvent (in 50% aqueous methanol, v:v). The 150 μL of an aqueous solution of the chromogenic substrate (at 0.25 mg/mL) are added and the rates of hydrolysis of the substrate are measured by monitoring the reactions at 405 nm for the release of p-nitroaniline. Standard curves are constructed by plotting free thrombin concentration against hydrolysis rate. The hydrolysis rates observed with test compounds are then converted to "free thrombin" values in the respective assays by use of the standard curves. The bound thrombin (bound to test compound) is calculated by subtracting the amount of free thrombin observed in each assay from the known initial amount of thrombin used in the assay. The amount of free inhibitor in each assay is calculated by subtracting the number of moles of bound thrombin from the number of moles of added inhibitor (test compound).
The Kass value is the hypothetical equilibrium constant for the reaction between thrombin and the test compound (I). [formula]
Kass is calculated for a range of concentrations of test compounds and the mean value is reported in units of liter per mole.

[2] = molecular target: T2, factor Xa (Homo sapiens, UniProt P00742); assay: Serine protease selectivity, Kass, factor Xa chromogenic assay; assay type: biochemical; conditions: apparent association constant
T2 construct: Human factors X, Xa, IXa, XIa, and XIIa are purchased from Enzyme Research Laboratories; purchased Enzyme Research Laboratories, South Bend, Ind
Method: (§1) By substantially following the procedures described above for human thrombin, and using other human blood coagulation system serine proteases and proteases of the fibrinolytic system with the appropriate chromogenic substrates, identified below, selectivity of the compounds of the present invention with respect to the coagulation factor serine proteases and with respect to the fibrinolytic system serine proteases are evaluated as well as their substantial lack of interference with serine proteases of the fibrinolytic system. Thrombin inhibitors preferably should spare fibrinolysis induced by urokinase, tissue plasminogen activator (t-PA) and streptokinase. This would be important to the therapeutic use of such agents as an adjunct to streptokinase, t-PA or urokinase thrombolytic therapy and to the use of such agents as an endogenous fibrinolysis-sparing (with respect to t-PA and urokinase) antithrombotic agent. In addition to the lack of interference with the amidase activity of the fibrinolytic proteases, such fibrinolytic system sparing can be studied by the use of human plasma clots and their lysis by the respective fibrinolytic plasminogen activators.
(§2) Human factors X, Xa, IXa, XIa, and XIIa are purchased from Enzyme Research Laboratories, South Bend, Ind.; human urokinase from Leo Pharmaceuticals, Denmark; and recombinant activated Protein C (aPC) is prepared at Eli Lilly and Co. substantially according to U.S. Pat. No. 4,981,952 incorporated by reference herein in its entirety. Chromogenic substrates: N--Benzoyl--Ile--Glu--Gly--Arg--p--nitroanilide (for factor Xa); N--Cbz--D--Arg--Gly--Arg--p--nitroanilide (for factor IXa assay as the factor Xa substrate); Pyroglutamyl--Pro--Arg--p--nitroanilide (for Factor XIa and for aPC); H--D--Pro--Phe--Arg--p--nitroanilide (for factor XIIa); and Pyroglutamyl--Gly--Arg--p--nitroanilide (for urokinase); are purchased from KabiVitrum, Stockholm, Sweden, or from Midwest Biotech, Fishers, Indiana. Bovine trypsin is purchased from Worthington Biochemicals, Freehold, N.J., and human plasma kallikrein from Kabi Vitrum, Stockholm, Sweden. Chromogenic substrate H--D--Pro--Phe--Arg--p--nitroanilide for plasma kallikrein is purchased from Kabi Vitrum, Stockholm, Sweden. N--Benzoyl--Phe--Val--Arg--p--nitroanilide, the substrate for human thrombin and for trypsin, is synthesized according to procedures described above for the compounds of the present invention, using known methods of peptide coupling from commercially available reactants or purchased from Midwest Biotech, Fishers, Ind.

[3] = molecular target: T3, Bovine trypsin (Bos taurus, UniProt P00760); assay: Serine protease selectivity, Kass, trypsin chromogenic assay; assay type: biochemical; conditions: apparent association constant
T3 construct: purchased Worthington Biochemicals, Freehold, N.J
T3 sequence (P00760 24-246): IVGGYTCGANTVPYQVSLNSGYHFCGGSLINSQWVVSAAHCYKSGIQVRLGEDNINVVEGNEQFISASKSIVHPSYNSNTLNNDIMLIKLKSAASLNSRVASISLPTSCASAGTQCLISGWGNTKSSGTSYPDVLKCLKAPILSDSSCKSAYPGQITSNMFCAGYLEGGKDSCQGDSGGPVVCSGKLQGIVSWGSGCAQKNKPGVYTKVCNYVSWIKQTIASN
Method: as §1, §2

[4] = molecular target: T4, Human plasmin (Homo sapiens, UniProt P00747); assay: Fibrinolytic protease selectivity, Kass, plasmin chromogenic assay; assay type: biochemical; conditions: apparent association constant
T4 construct: Human plasmin is purchased from Boehringer Mannheim; purchased Boehringer Mannheim, Indianapolis, Indiana
Method: as §1
(§3) Human plasmin is purchased from Boehringer Mannheim, Indianapolis, Indiana; nt-PA is purchased as single chain activity reference from American Diagnostica, Greenwich, Conn.; modified-t-PA6 (mt-PA6) is prepared at Eli Lilly and Company by procedure known in the art (See, Burck, et al., J. Biol. Chem., 265, […] (1990). Plasmin chromogenic substrate H--D--Val--Leu--Lys--p--nitroanilide and tissue plasminogen activator (t-PA) substrate H--D--Ile--Pro--Arg--p--nitroanilide are purchased from Kabi Vitrum, Stockholm, Sweden.

[5] = molecular target: T5, tissue plasminogen activator (t-PA) (Homo sapiens, UniProt P00750); assay: Fibrinolytic protease selectivity, Kass, t-PA chromogenic assay; assay type: biochemical; conditions: apparent association constant
T5 construct: purchased American Diagnostica, Greenwich, Conn
Method: as §1, §3

[6] = test system: human plasma; assay: Human plasma anticoagulation, thrombin time (TT); conditions: concentration required to double the thrombin time, linear extrapolation
Method: (§4) Dog plasma and rat plasma is obtained from conscious mixed-breed hounds (either sex, Hazelton-LRE, Kalamazoo, Mich., U.S.A.) or from anesthetized male Sprague-Dawley rats (Harlan Sprague-Dawley, Inc., Indianapolis, Ind., U.S.A.) by venipuncture into 3.8 percent citrate. Fibrinogen is prepared from in-date ACD human blood as the fraction I-2 according to previous procedures and specifications. Smith, Biochem. J., 185, 1-11 (1980); and Smith, et al., Biochemistry, 11, 2958-2967 (1972). Human fibrinogen is also purchased as 98 percent pure/plasmin free from American Diagnostica, Greenwich, Conn. Coagulation reagents ACTIN, Thromboplastin, and Human plasma are from Baxter Healthcare Corp., Dade Division, Miami, Fla. Bovine thrombin from Parke-Davis ([…], Mich.) is used for coagulation assays in plasma.
(§5) Coagulation assay procedures are as previously described. Smith, et al., Thrombosis Research, 50, 163-174 (1988). A CoAScreener coagulation instrument (American LABor, Inc.) is used for all coagulation assay measurements. The prothrombin time (PT) is measured by adding 0.05 mL saline and 0.05 mL Thromboplastin-C reagent to 0.05 mL test plasma. The activated partial thromboplastin time (APTT) is measured by incubation of 0.05 mL test plasma with 0.05 mL Actin reagent for 120 seconds followed by 0.05 mL CaCl2 (0.02 M). The thrombin time (TT) is measured by adding 0.05 mL saline and 0.05 mL thrombin (10 NIH units/mL) to 0.05 mL test plasma. The compounds of formula I are added to human or animal plasma over a wide range of concentrations to determine prolongation effects on the APTT, PT, and TT assays. Linear extrapolations are performed to estimate the concentrations required to double the clotting time for each assay.

[7] = test system: human plasma; assay: Human plasma anticoagulation, activated partial thromboplastin time (APTT); conditions: concentration required to double the APTT, linear extrapolation
Method: as §4, §5

[8] = test system: human plasma; assay: Human plasma anticoagulation, prothrombin time (PT); conditions: concentration required to double the PT, linear extrapolation
Method: as §4, §5

T4 sequence (P00747 581-810 limits assumed): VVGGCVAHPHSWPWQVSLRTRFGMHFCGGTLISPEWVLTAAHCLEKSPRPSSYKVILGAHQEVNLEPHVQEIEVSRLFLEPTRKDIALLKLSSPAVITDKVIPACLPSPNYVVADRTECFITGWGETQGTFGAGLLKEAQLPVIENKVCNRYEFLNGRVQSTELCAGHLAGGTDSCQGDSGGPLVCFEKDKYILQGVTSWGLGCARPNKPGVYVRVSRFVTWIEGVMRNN
T4 sequence (P00747 97-580 partner limits assumed): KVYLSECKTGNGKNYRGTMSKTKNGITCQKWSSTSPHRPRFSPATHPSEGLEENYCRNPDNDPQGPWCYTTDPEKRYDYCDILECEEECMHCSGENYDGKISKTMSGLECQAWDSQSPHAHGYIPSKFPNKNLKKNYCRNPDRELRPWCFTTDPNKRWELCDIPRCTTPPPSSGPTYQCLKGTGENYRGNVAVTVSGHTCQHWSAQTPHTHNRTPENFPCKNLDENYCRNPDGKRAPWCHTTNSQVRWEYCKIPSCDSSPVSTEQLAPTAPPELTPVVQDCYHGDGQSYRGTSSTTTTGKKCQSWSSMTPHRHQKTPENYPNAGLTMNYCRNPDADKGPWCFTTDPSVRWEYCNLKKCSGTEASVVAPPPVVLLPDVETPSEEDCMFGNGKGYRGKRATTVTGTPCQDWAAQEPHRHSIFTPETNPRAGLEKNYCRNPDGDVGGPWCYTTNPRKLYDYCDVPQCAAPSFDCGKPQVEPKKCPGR
T5 sequence (P00750 36-562): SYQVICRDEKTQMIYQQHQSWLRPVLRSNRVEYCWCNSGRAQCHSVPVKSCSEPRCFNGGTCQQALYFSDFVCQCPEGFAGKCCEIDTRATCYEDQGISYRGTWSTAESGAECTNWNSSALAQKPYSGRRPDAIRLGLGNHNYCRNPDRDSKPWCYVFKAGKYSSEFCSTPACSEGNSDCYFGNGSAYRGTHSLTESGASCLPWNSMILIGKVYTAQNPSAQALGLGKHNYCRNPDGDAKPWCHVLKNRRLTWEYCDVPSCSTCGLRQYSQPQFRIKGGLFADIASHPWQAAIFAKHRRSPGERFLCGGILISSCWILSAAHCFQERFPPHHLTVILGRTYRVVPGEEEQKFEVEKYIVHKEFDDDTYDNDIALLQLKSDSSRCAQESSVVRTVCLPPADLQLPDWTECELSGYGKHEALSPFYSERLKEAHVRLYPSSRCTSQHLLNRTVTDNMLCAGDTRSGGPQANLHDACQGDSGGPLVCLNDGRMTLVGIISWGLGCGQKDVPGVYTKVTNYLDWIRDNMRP
T2 sequence (P00742 235-488 limits assumed): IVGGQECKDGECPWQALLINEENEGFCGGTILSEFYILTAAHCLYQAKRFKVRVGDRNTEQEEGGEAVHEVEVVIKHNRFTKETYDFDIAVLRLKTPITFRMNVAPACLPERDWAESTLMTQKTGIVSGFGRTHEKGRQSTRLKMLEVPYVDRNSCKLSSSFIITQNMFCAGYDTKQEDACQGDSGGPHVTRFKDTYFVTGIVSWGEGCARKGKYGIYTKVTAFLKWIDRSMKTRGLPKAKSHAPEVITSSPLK
T2 sequence (P00742 41-179 partner limits assumed): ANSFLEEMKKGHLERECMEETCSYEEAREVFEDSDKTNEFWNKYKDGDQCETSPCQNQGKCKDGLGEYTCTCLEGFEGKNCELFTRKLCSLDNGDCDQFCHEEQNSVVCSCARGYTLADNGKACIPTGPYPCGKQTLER

SMILES	Enzyme Kass Human Thrombin [1] [L/mol × 10^6]	Enzyme Kass Xa [2] [L/mol × 10^6]	Enzyme Kass Trypsin [3] [L/mol × 10^6]	Enzyme Kass Plasmin [4] [L/mol × 10^6]	Enzyme Kass t-PA [5] [L/mol × 10^6]	Human Plasma Anticoagulation 2 × Clotting time TT [6] [ng/mL]	Human Plasma Anticoagulation 2 × Clotting time APTT [7]	Human Plasma Anticoagulation 2 × Clotting time PT [8]
CCCN(CC(=O)N[C@H](C=O)CCCNC(=N)N)C(=O)[C@H]1CCCCN1.Cl.Cl [Example 3, D-homoprolyl-N-n-propylglycyl-L-argininal dihydrochloride]	34	0.084	2.4	0.045	0.004	77	2,100 ng/mL	2,000 ng/mL
CC(C)CN(CC(=O)N[C@H](C=O)CCCNC(=N)N)C(=O)[C@H]1CCCCN1.Cl.Cl [Example 5, D--hPro--N(i--Bu)Gly--ArgH.2HCl] (H-[dPip]-[Nleu]-Arg-aldehyde)	24	0.060	1.6	0.050	0.002	100	3,800 ng/mL	4,900 ng/mL
CCN(CC(=O)N[C@H](C=O)CCCNC(=N)N)C(=O)[C@H]1CCCCN1.Cl.Cl [Example 2, D-homoprolyl-N-ethylglycyl-L-argininal dihydrochloride] (H-[dPip]-[NEtG]-Arg-aldehyde)	33	0.039	1.3	0.013	0.005	160	2,600 ng/mL	5,000 ng/mL
Cc1ccccc1N(CC(=O)N[C@H](C=O)CCCN=C(N)N)C(=O)[C@H]1CCCCN1.Cl.Cl [Example 12, D--hPro--N(o--Me--Ph)Gly--ArgH.2HCl]	3.3	0.14	0.55	0.060	0.0064	370	4,900 ng/mL	8,200 ng/mL
Cl.Cl.N=C(N)NCCC[C@@H](C=O)NC(=O)CN(Cc1ccccc1)C(=O)[C@H]1CCCCN1 [Example 7, D--hPro--N(Bn)Gly--ArgH.2HCl] (H-[dPip]-[Nphe]-Arg-aldehyde)	11	0.25	10	0.13	0.010	120	3,700 ng/mL	4,400 ng/mL
Cl.Cl.N=C(N)NCCC[C@@H](C=O)NC(=O)CN(CCCc1ccccc1)C(=O)[C@H]1CCCCN1 [Example 9, D--hPro--N(PhCH2 CH2 CH2)Gly--ArgH.2HCl]	24	0.31	6.0	0.12	0.006	55	2,200 ng/mL	3,000 ng/mL
Cl.Cl.NC(N)=NCCC[C@@H](C=O)NC(=O)CN(CCC1CCCCC1)C(=O)[C@H]1CCCCN1 [Example 10, D--hPro--N(cyclohexyl--CH2 CH2)Gly--ArgH.2HCl]	5.4	0.22	5.8	0.33	0.007	230	4,100 ng/mL	6,900 ng/mL
